Laboratory results reported in publication PMC7586336 (Journal of Medicinal Chemistry, 2020).
In brackets after ≈: the same amount, converted by molar mass.

Experiments:
P. aeruginosa PA14 ΔlecB = assay: Antibiotic susceptibility; format: cell-based; details: Pseudomonas aeruginosa
P. aeruginosa PA14 ΔlecA = assay: Antibiotic susceptibility; format: cell-based; details: Pseudomonas aeruginosa
P. aeruginosa PAO1 wt = assay: Antibiotic susceptibility; format: cell-based, Pseudomonas aeruginosa
E. coli gyrase = E. coli gyrase (Escherichia coli, UniProt P0AES4+P0AES6); format: biochemical
P. aeruginosa PA14 wt = assay: Antibiotic susceptibility; format: cell-based, Pseudomonas aeruginosa
HEK293 cells = assay: Cytotoxicity; format: cell-based, human; details: HEK 293 and A549, 100 μM, 48 h incubation
[1] = Microsomal stability, human liver microsomes; format: in vitro ADME; details: one experiment
E. coli DSM 1116 = assay: Antibiotic susceptibility; format: cell-based; details: Escherichia coli, DSM1116
Calu-3 HTB-55 = assay: Cell permeability, Transwell system; format: in vitro ADME, human; details: after 4 h, data not shown
[2] = Microsomal stability, mouse liver microsomes; format: in vitro ADME; details: one experiment
E. coli K12 MG1655 = assay: Antibiotic susceptibility; format: cell-based; details: Escherichia coli
A549 cells = assay: Cytotoxicity; format: cell-based, human; details: 48 h, MTT
[3] = P. aeruginosa PA14 wt + 1 μg/mL PMBN
[4] = P. aeruginosa PAO1 wt + 1 μg/mL PMBN

Sequence of E. coli gyrase (P0AES4 whole entry, one chain of several): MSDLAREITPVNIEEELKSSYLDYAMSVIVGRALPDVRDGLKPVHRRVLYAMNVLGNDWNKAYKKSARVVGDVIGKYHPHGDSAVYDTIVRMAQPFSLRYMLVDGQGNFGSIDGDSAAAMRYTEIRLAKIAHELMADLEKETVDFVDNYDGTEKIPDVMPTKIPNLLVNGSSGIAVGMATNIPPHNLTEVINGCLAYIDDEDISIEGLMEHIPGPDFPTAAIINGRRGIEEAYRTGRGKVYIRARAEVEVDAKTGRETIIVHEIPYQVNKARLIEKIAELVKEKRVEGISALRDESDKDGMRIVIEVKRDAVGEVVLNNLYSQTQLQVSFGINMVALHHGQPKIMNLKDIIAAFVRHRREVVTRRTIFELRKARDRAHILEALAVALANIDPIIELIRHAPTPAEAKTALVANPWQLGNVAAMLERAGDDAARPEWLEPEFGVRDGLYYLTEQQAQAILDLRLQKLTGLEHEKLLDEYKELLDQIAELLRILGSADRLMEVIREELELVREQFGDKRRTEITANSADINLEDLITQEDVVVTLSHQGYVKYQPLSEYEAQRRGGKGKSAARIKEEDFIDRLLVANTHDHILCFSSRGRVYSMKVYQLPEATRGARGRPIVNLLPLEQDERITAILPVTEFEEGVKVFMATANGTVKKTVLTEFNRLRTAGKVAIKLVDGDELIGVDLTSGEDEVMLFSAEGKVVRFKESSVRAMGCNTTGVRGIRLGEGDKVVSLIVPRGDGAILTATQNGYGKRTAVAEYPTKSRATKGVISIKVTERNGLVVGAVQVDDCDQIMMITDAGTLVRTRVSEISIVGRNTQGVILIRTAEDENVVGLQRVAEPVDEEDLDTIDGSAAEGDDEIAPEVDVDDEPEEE

`O=C(O)c1cn(C2CC2)c2cc(N3CCNCC3)c(F)cc2c1=O` [compound 3, ciprofloxacin, reference compound] showed an MIC (P. aeruginosa PA14 ΔlecB) of 0.05 to 0.08 µg/mL (≈ 0.151 to 0.241 µM), an MIC (P. aeruginosa PA14 ΔlecA) of 0.05 to 0.08 µg/mL (≈ 0.151 to 0.241 µM) and an MIC (P. aeruginosa PAO1 wt; Pseudomonas aeruginosa, PAO1) of 0.025 to 0.08 µg/mL (≈ 0.0754 to 0.241 µM).

With `C#CCN1CCN(c2cc3c(cc2F)c(=O)c(C(=O)O)cn3C2CC2)CC1` [compound 20, N-Propargyl-ciprofloxacin] the “factor of decrease in gyrase inhibitory concentration compared to 3” value (E. coli gyrase) was 3.5, the MIC (P. aeruginosa PA14 wt; [3]) was 0.025 to 0.5 µg/mL and the MIC (P. aeruginosa PA14 wt; Pseudomonas aeruginosa, PA14) was 2 to 4 µg/mL (≈ 5.41 to 10.8 µM). The MIC (P. aeruginosa PA14 ΔlecA) was 4 to 8 µg/mL (≈ 10.8 to 21.7 µM), the MIC (P. aeruginosa PAO1 wt; [4]) was 1 to 2 µg/mL and the MIC (P. aeruginosa PAO1 wt; Pseudomonas aeruginosa, PAO1) was 4 to 8 µg/mL (≈ 10.8 to 21.7 µM).

With `O=C(Cn1cc(CN2CCN(c3cc4c(cc3F)c(=O)c(C(=O)O)cn4C3CC3)CC2)nn1)Nc1ccc(S[C@@H]2O[C@H](CO)[C@H](O)[C@H](O)[C@H]2O)cc1` [compound 22] the “acute cytotoxicity (in words)” value (HEK293 cells) was “no cytotoxicity”, the “metabolic stability CLMIC HLM” value [1] was 10 μL/min/mg protein and the MIC (E. coli DSM 1116) was 2 to 4 µg/mL (≈ 2.7 to 5.41 µM). For the same molecule, the “permeation (apical to basal) over Calu-3 HTB-55 cells” value (Calu-3 HTB-55) was “No detectable permeation”, the MIC (P. aeruginosa PA14 wt; [3]) was 4 to 16 µg/mL and the “metabolic stability CLMIC MLM” value [2] was 10 μL/min/mg protein. It also gave an MIC (P. aeruginosa PA14 ΔlecB) of 16 to 32 µg/mL (≈ 21.6 to 43.3 µM), an MIC (P. aeruginosa PA14 ΔlecA) of 16 to 32 µg/mL (≈ 21.6 to 43.3 µM) and an MIC (P. aeruginosa PAO1 wt; [4]) of 4 to 8 µg/mL. The MIC (P. aeruginosa PAO1 wt; Pseudomonas aeruginosa, PAO1) was 16 to 32 µg/mL (≈ 21.6 to 43.3 µM).

Work on `O=C(Cn1cc(CCN2CCN(c3cc4c(cc3F)c(=O)c(C(=O)O)cn4C3CC3)CC2)nn1)Nc1ccc(S[C@@H]2O[C@H](CO)[C@H](O)[C@H](O)[C@H]2O)cc1` [compound 23] yielded an MIC (E. coli K12 MG1655) of 8 to 16 µg/mL (≈ 10.6 to 21.2 µM), an MIC (P. aeruginosa PA14 wt; [3]) of 16 to 64 µg/mL and an MIC (P. aeruginosa PAO1 wt; [4]) of 32 to 64 µg/mL.

With `O=C(CCn1cc(CN2CCN(c3cc4c(cc3F)c(=O)c(C(=O)O)cn4C3CC3)CC2)nn1)Nc1ccc(S[C@@H]2O[C@H](CO)[C@H](O)[C@H](O)[C@H]2O)cc1` [compound 24] the MIC (E. coli DSM 1116) was 2 to 4 µg/mL (≈ 2.65 to 5.31 µM), the MIC (P. aeruginosa PA14 wt; [3]) was 8 to 16 µg/mL and the MIC (P. aeruginosa PA14 wt; Pseudomonas aeruginosa, PA14) was 8 to 16 µg/mL (≈ 10.6 to 21.2 µM). It also gave an MIC (P. aeruginosa PA14 ΔlecB) of 8 to 32 µg/mL (≈ 10.6 to 42.5 µM), an MIC (P. aeruginosa PA14 ΔlecA) of 8 to 16 µg/mL (≈ 10.6 to 21.2 µM) and an MIC (P. aeruginosa PAO1 wt; [4]) of 4 to 8 µg/mL.

`O=C(CCn1cc(CCN2CCN(c3cc4c(cc3F)c(=O)c(C(=O)O)cn4C3CC3)CC2)nn1)Nc1ccc(S[C@@H]2O[C@H](CO)[C@H](O)[C@H](O)[C@H]2O)cc1` [compound 25] showed an MIC (P. aeruginosa PA14 wt; [3]) of 32 to 64 µg/mL and an MIC (P. aeruginosa PAO1 wt; [4]) of 32 to 64 µg/mL.

In the case of `O=C(CCCn1cc(CN2CCN(c3cc4c(cc3F)c(=O)c(C(=O)O)cn4C3CC3)CC2)nn1)Nc1ccc(S[C@@H]2O[C@H](CO)[C@H](O)[C@H](O)[C@H]2O)cc1` [compound 26], the MIC (E. coli K12 MG1655) is reported as 1 to 2 µg/mL (≈ 1.3 to 2.6 µM), the MIC (E. coli DSM 1116) is reported as 2 to 32 µg/mL (≈ 2.6 to 41.7 µM) and the MIC (P. aeruginosa PA14 wt; Pseudomonas aeruginosa, PA14) is reported as 8 to 16 µg/mL (≈ 10.4 to 20.8 µM). The MIC (P. aeruginosa PA14 ΔlecB) was 8 to 16 µg/mL (≈ 10.4 to 20.8 µM), the MIC (P. aeruginosa PA14 ΔlecA) was 8 to 16 µg/mL (≈ 10.4 to 20.8 µM) and the MIC (P. aeruginosa PAO1 wt; [4]) was 4 to 8 µg/mL. It also gave an MIC (P. aeruginosa PAO1 wt; Pseudomonas aeruginosa, PAO1) of 16 to 32 µg/mL (≈ 20.8 to 41.7 µM).

In the case of `O=C(CCCn1cc(CCN2CCN(c3cc4c(cc3F)c(=O)c(C(=O)O)cn4C3CC3)CC2)nn1)Nc1ccc(S[C@@H]2O[C@H](CO)[C@H](O)[C@H](O)[C@H]2O)cc1` [compound 27], the MIC (E. coli DSM 1116) is reported as 4 to 32 µg/mL (≈ 5.12 to 40.9 µM), the MIC (P. aeruginosa PA14 wt; [3]) is reported as 32 to 64 µg/mL and the MIC (P. aeruginosa PAO1 wt; [4]) is reported as 32 to 64 µg/mL.

For `O=C(CCCCn1cc(CN2CCN(c3cc4c(cc3F)c(=O)c(C(=O)O)cn4C3CC3)CC2)nn1)Nc1ccc(S[C@@H]2O[C@H](CO)[C@H](O)[C@H](O)[C@H]2O)cc1` [compound 28], the MIC (E. coli K12 MG1655) was 2 to 4 µg/mL (≈ 2.56 to 5.12 µM), the MIC (E. coli DSM 1116) was 4 to 32 µg/mL (≈ 5.12 to 40.9 µM) and the MIC (P. aeruginosa PA14 wt; [3]) was 2 to 8 µg/mL. The MIC (P. aeruginosa PA14 ΔlecB) was 32 to 64 µg/mL (≈ 40.9 to 81.9 µM), the MIC (P. aeruginosa PAO1 wt; [4]) was 8 to 16 µg/mL and the MIC (P. aeruginosa PAO1 wt; Pseudomonas aeruginosa, PAO1) was 32 to 64 µg/mL (≈ 40.9 to 81.9 µM).

For `O=C(CCCCn1cc(CCN2CCN(c3cc4c(cc3F)c(=O)c(C(=O)O)cn4C3CC3)CC2)nn1)Nc1ccc(S[C@@H]2O[C@H](CO)[C@H](O)[C@H](O)[C@H]2O)cc1` [compound 29], the MIC (E. coli DSM 1116) was 4 to 32 µg/mL (≈ 5.03 to 40.2 µM), the MIC (P. aeruginosa PA14 wt; [3]) was 32 to 64 µg/mL and the MIC (P. aeruginosa PAO1 wt; [4]) was 32 to 64 µg/mL.

For `C[C@@H]1O[C@H](CNS(=O)(=O)c2ccc(CCn3cc(CN4CCN(c5cc6c(cc5F)c(=O)c(C(=O)O)cn6C5CC5)CC4)nn3)s2)[C@@H](O)[C@H](O)[C@@H]1O` [compound 30], the MIC (E. coli K12 MG1655) was 8 to 16 µg/mL (≈ 10.5 to 21 µM), the “acute cytotoxicity (in words)” value (HEK293 cells) was “no cytotoxicity” and the “metabolic stability CLMIC HLM” value [1] was 15 μL/min/mg protein. For the same molecule, the MIC (E. coli DSM 1116) was 16 to 32 µg/mL (≈ 21 to 42 µM), the “permeation (apical to basal) over Calu-3 HTB-55 cells” value (Calu-3 HTB-55) was “No detectable permeation” and the “metabolic stability CLMIC MLM” value [2] was 10 μL/min/mg protein. For the same molecule, the “cytotoxicity @ 100 μM A549” value (A549 cells) was “–9 ± 15 % inhibition” and the MIC (P. aeruginosa PAO1 wt; [4]) was 32 to 64 µg/mL.
